From ChEMBL document CHEMBL1139916, “6-hydroxy to 6'''-amino tethered ring-to-ring macrocyclic aminoglycosides as probes for APH(3')-IIIa kinase” (2007) come the findings set out here.

A short description of experiment [1]: Activity of bacterial APH(3')-3a kinase.
Experiment [2] can be described thus: Ratio of Kcat/Km of bacterial APH(3')-3a kinase.
In another experiment the test system is Staphylococcus aureus. Put plainly: Growth inhibition of Staphylococcus aureus. The class given is functional.
Another experiment deals with Escherichia coli. The experiment is described as follows: Growth inhibition of Escherichia coli. The class given is functional.
Experiment [3] is described as follows: Activity of bacterial APH(3')-3a kinase assessed high affinity phosphorylation.
Experiment [4] can be described thus: Activity of bacterial APH(3')-3a kinase assessed low affinity phosphorylation.
Experiment [5] in a line: Ratio of Kcat/Km of bacterial APH(3')-3a kinase-mediated high affinity phosphorylation.
Experiment [6] is described as follows: Ratio of Kcat/Km of bacterial APH(3')-3a kinase-mediated low affinity phosphorylation.

As a reminder, the Km is the concentration of substrate that gives half-maximal velocity. The term Vmax denotes the rate approached at saturating substrate. By kcat is commonly meant the maximal rate divided by the concentration of active sites. The term kcat/Km denotes the turnover number divided by the Michaelis constant. By MIC is commonly meant the smallest concentration in the dilution series that meets the test's criterion for growth inhibition. On to `N[C@H]1[C@H]2O[C@H]3[C@@H](O)[C@H](O[C@@H]4[C@@H](OCCCCC(=O)NC[C@H](O2)[C@@H](O)[C@@H]1O)[C@H](N)C[C@H](N)[C@H]4O[C@H]1O[C@H](CO)[C@@H](O)[C@H](O)[C@H]1N)O[C@@H]3CO`, for which, in experiment [1], the Km came out at 21.8 µM, the Vmax was 0.07 µM/s and the kcat was determined as 0.073 s⁻¹. Besides, the kcat/Km in experiment [2] is 3.35 10^3/M/s. Also, the MIC in the experiment with Staphylococcus aureus is > 40 µg/mL. In the experiment on Escherichia coli, the MIC was > 10 µg/mL.

For `NC[C@@H]1O[C@H](O[C@H]2[C@@H](O)[C@H](O[C@@H]3[C@@H](O)[C@H](N)C[C@H](N)[C@H]3O[C@H]3O[C@H](CO)[C@@H](O)[C@H](O)[C@H]3N)O[C@@H]2CO)[C@H](N)[C@@H](O)[C@@H]1O`, in experiment [3], the Km came to 16.9 µM, the Vmax was 0.183 µM/s and the kcat is 0.19 s⁻¹. Besides, in experiment [4], the Km came to 51.1 µM, the Vmax turned out to be 0.292 µM/s and the kcat amounted to 0.304 s⁻¹. In addition, the kcat/Km in experiment [5] is 1.12 10^4/M/s. Besides, the kcat/Km in experiment [6] was 5.95 10^3/M/s.

For the compound `N[C@H]1[C@H]2O[C@H]3[C@@H](O)[C@H](O[C@@H]4[C@@H](OCCCCCNC[C@H](O2)[C@@H](O)[C@@H]1O)[C@H](N)C[C@H](N)[C@H]4O[C@H]1O[C@H](CO)[C@@H](O)[C@H](O)[C@H]1N)O[C@@H]3CO`, the MIC was > 40 µg/mL against Staphylococcus aureus and > 10 µg/mL in the experiment on Escherichia coli.
